{"source": "patent US10016515B2", "about": "“DMA, a bis-benzimidazole, confers radioprotection to the intestine via Akt/NFκB dual pathway activation” (Jawaharlal Nehru University, priority 2016, dated 2018)", "key": {"[1]": {"tested_on": "MRC5 cells", "assay": "Clonogenic survival, DMF", "format": "cell-based, human", "settings": "MRC5, 50 μM DMA 2 h before radiation", "procedure": "(§1) Exponentially growing U87, HEK293, MRC5 and A549 cells were treated with 50 μM DMA for 2 h and irradiated with 0, 1, 2, 5, 8 and 10 Gy of radiation dose as indicated at RT and trypsinized immediately at 37° C. Cells were seeded into 60 mm dishes in triplicate at various cell densities aiming approximately 100 colonies/dish. Percentage radioprotection was calculated by following formula % of Protection in radiation treated cells=(SFDMA+radiaion)−(SFRadiaion)/SFControl×100 Where SF is survival fraction in respective conditions. Dose modification factor (DMF) was calculated as ratio of 50% survival in DMA+radiation to 50% survival in radiation only."}, "[2]": {"tested_on": "U87 cells", "assay": "Clonogenic survival, DMF", "format": "cell-based, human", "settings": "U87, 50 μM DMA 2 h before radiation", "procedure": "as §1"}, "[3]": {"tested_on": "HEK293 cells", "assay": "Clonogenic survival, DMF", "format": "cell-based, human", "settings": "HEK293, 50 μM DMA 2 h before radiation", "procedure": "as §1"}, "[4]": {"tested_on": "A549 cells", "assay": "Clonogenic survival, DMF", "format": "cell-based, human", "settings": "A549, 50 μM DMA 2 h before radiation", "procedure": "as §1"}, "[5]": {"tested_on": "HEK293 cells", "assay": "Annexin-V staining, control siRNA and Akt siRNA transfected cells", "format": "cell-based, human", "settings": "for Apoptotic events: Akt knocked down HEK293, DMA+Radiation; for Total early and late apoptotic cells: control siRNA HEK293, DMA+Radiation", "procedure": "HEK 293 cells were transfected with Akt siRNA and control-siRNA (Santa Cruz Biotechnology Inc.) according to the manufacturer's instructions. Semi-quantitative RT-PCR was performed with primers specific for Akt and ACTB in control siRNA and Akt siRNA treated HEK cells for analysing knockdown of Akt […] gene expression.\nHEK293 cells (2×10^5 cells/plate) were transfected with control siRNA and siRNA-Akt, and DMA, Radiation and DMA+Radiation treatments were given as described earlier and samples were collected at 3, 6, 12, 18 and 24 h (data not shown for 12 and 18 h). Samples were prepared according to the manufacturer's instructions (BD Pharmingen™ Annexin V: FITC Apoptosis Detection Kit I, Catalog Number 556547, USA) and the samples were subjected to flow cytometry analysis (Becton Dickinson)."}, "[6]": {"tested_on": "HEK293 cells", "assay": "Cell-cycle analysis", "format": "cell-based, human", "procedure": "The cell cycle analysis of Akt depleted HEK293 cells were done at 0, 1, 3, 6, 12, 18 and 24 h, washed twice with ice-cold PBS, and fixed in 70% ethanol. Cell pellets were stored at 4° C. for 24 h, and stained with 0.5 mL of propidium iodide (0.1% in 0.6% Triton X-100 in PBS) and 0.5 mL of RNase (2 mg/mL) for 30 min in dark. Samples were then analysed on a FACS Calibur flow-cytometer (Becton Dickinson)."}, "[7]": {"tested_on": "Balb/c mice", "format": "in vivo", "settings": "400 mg/kg oral before 8Gy TBI"}, "[8]": {"tested_on": "HEK293 cells", "assay": "Actively proliferating cells by BrdU uptake", "format": "cell-based, human", "settings": "48 h", "procedure": "FIG. 5. […] Tissue sections performed 3 days postirradiation (8Gy) with and without 50 mg/kg bw, i.v. DMA pretreatment with the control and DMA treated tissues (A) Images showing spleen, intestine and liver analysis at magnification 40× objective lens. (B) Small intestine, spleen and lung sections from melanoma tumor bearing mice at 40× & 60× objective lens (C) Immunohistochemical analysis of BrdU uptake in spleen and IL6 protein expression in intestine tissues at 100× objective lens magnification. (D) Graphical representation of actively proliferating HEK293 at 48 h and Balb/c intestinal cells by BrdU uptake under each condition (n=3/group from 2 independent experiments)."}, "[9]": {"tested_on": "Akt/NFκB pathway in HEK293, MRC5 and A549 cell lines", "assay": "Immunoblot analysis in cell lines", "format": "cell-based, human", "procedure": "HEK293, MRC5 and A549 cells were treated as indicated earlier. The cell pellet was resuspended in RIPA buffer and allowed to swell on ice for 30 min. Balb/c intestine tissue and tumor tissues were homogenized in RIPA buffer. Protein concentration was determined using Bradford's Assay (Bangalore Genei). Western blot was performed using standard protocols with primary antibodies against Akt, pAkt (Ser-473), […], mTOR, p70, Bad, PTEN, IKKα/β, p IKKα/β, p53, Bcl2, GAPDH, and NFκB (p65) (Cell Signalling) and horseradish peroxidase-conjugated mouse or rabbit secondary antibody (Abcam). Signals were detected using enhanced chemiluminescence (ECL system, Pierce) on X-ray film.\nCells after treatment were collected by trypsinization and washed twice with ice-cold PBS. Cell pellet was resuspended in five volumes of cytoplasmic extraction buffer (CEB) [10 mM HEPES pH 7.9, 10 mM KCl, 0.1 mM EDTA, 0.3% NP-40 and 1× protease inhibitor cocktail] to the size of cell pellet for 5 min. Protein solution was centrifuged at 3000 rpm for 5 min at 4° C. and supernatant was harvested as cytoplasmic extract.\nThe cell pellet obtained after extraction of cytoplasmic proteins was resuspended again in CEB without NP-40. It was centrifuged at 3000 rpm for 5 min at 4° C. and supernatant was discarded. Equal volume of nuclear extraction buffer (NEB) [20 mM HEPES pH7.9, 0.4M NaCl, 1 mM EDTA, 25% Glycerol, and 1× protease inhibitor cocktail] was added to nuclear pellet and incubated on ice for 10 min. Supernatant was harvested as nuclear protein extract."}, "[10]": {"settings": "DMA+Radiation, all three cell lines"}}, "note": "Values joined by “and” are separate entries in the source; they are usually repeats but may differ in a detail not shown here. Equal values may be shown once."}
{"smiles": "COc1ccc(-c2nc3cc(-c4nc5cc(N6CCN(C)CC6)ccc5[nH]4)ccc3[nH]2)cc1OC", "note": "[DMA, 5-(4-methylpiperazin-1-yl)-2-[2′-(3,4-dimethoxyphenyl)-5′-benzimidazolyl]benzimidazole]", "values": [{"measurement": "DMF at 50% survival", "setting": "[1]", "value": 1.1}, {"measurement": "DMF at 50% survival", "setting": "[2]", "value": "1.067 and 1.07"}, {"measurement": "DMF at 50% survival", "setting": "[3]", "value": 1.44}, {"measurement": "DMF at 50% survival", "setting": "[4]", "value": 1.38}, {"measurement": "Apoptotic events", "setting": "[5]; 3 h", "value": 23, "unit": "%"}, {"measurement": "Apoptotic events", "setting": "[5]; 6 h", "value": 21, "unit": "%"}, {"measurement": "Apoptotic events", "setting": "[5]; 24 h", "value": 22, "unit": "%"}, {"measurement": "Total early and late apoptotic cells", "setting": "[5]; 3 h", "value": 12, "unit": "%"}, {"measurement": "Total early and late apoptotic cells", "setting": "[5]; 6 h", "value": 9, "unit": "%"}, {"measurement": "Total early and late apoptotic cells", "setting": "[5]; 24 h", "value": 7, "unit": "%"}, {"measurement": "G2 check point", "setting": "[6]; HEK293, DMA 50 μM alone", "value": "no significant G2 check point"}, {"measurement": "G2-M progression", "setting": "[6]; HEK293, DMA+Radiation (5Gy), 18 h", "value": "significant G2-M delay"}, {"measurement": "30-days survival rate", "setting": "[7]", "value": 90, "unit": "%"}, {"measurement": "Cells at active S phase", "setting": "[8]; HEK293, DMA treated", "value": 30, "unit": "%"}, {"measurement": "S phase cells", "setting": "[8]; HEK293, DMA+Radiation (5Gy)", "value": "came back to normal"}, {"measurement": "NFκB p65 level", "setting": "[9]; DMA+Radiation vs control and irradiated", "value": "increased level"}, {"measurement": "Level of phosphorylated Akt (Ser-473)", "setting": "[9]; DMA+Radiation, HEK293, MRC5 and A549", "value": "increased"}, {"measurement": "IκBα protein level", "setting": "[9]; [10]", "value": "decrease"}, {"measurement": "Phosphorylation of IKKα and IKKβ", "setting": "[9]; [10]", "value": "higher"}, {"measurement": "NFκB p65 in cytoplasm and nucleus", "setting": "[9]; HEK293 cytoplasmic and nuclear extract, DMA prior to radiation", "value": "higher expression"}, {"measurement": "PTEN, mTOR and p70 levels", "setting": "[9]; all three cell lines", "value": "could not address any significant changes"}, {"measurement": "Phosphorylated GSK3β", "setting": "[9]; prior DMA treatment to radiation, all three cell lines", "value": "increase"}]}
